Test [1] concerns the target Recombinant Btk (Homo sapiens (Human), UniProt Q06187). Kind of test: BTK kinase assay (TR-FRET). The settings on record: 1 hour pre-incubation, ATP at Km. A general note: Time-resolved FRET reads energy transfer from a long-lived donor to a nearby acceptor.
In test [2] the target is phosphorylated Btk at Tyr223 in Ramos cells (Homo sapiens (Human), UniProt Q06187). Nature of the test: BTK pY223 cellular assay (HTRF) in Ramos cells. Type of test: cell-based. The settings on record: 1 hour compound incubation, pervanadate or Na3VO4 stimulation.
Experimental: Btk pY223 cellular assay is a HTRF based assay intended to determine the endogenous levels of phosphorylated Btk at Tyr223.
Briefly, Ramos cells were serum starved in 0.5% FBS-containing RPMI1640 for 2 hours. Following starvation, the cells were incubated with compounds to be detected at various concentrations in a CO2 incubator for 1 hour. After incubation, cells were stimulated with 1 mM pervanadate (PV) or Na3VO4 (OV) for 20 min. Then, the cells were spinned down and lysed with 1× lysis buffer at RT for 10 min (4× lysis buffer supplied in the kit). During the incubation, 1× antibody mix was prepared by diluting anti-Btk-d2 and anti-pBtk-K in detection buffer (supplied in the kit). […] After that, 18 ul of cell lysate was transferred to the assay plate pre-loaded with antibody solution. After mixing gently and spinning briefly, the plate was sealed up and kept in dark at RT for 18 hours. […] IC50 values were calculated with GraphPad Prism software using the sigmoidal dose-response function.

Read-outs that look alike come from different tables or passages of the source.

Sequence of Recombinant Btk (Q06187 whole entry): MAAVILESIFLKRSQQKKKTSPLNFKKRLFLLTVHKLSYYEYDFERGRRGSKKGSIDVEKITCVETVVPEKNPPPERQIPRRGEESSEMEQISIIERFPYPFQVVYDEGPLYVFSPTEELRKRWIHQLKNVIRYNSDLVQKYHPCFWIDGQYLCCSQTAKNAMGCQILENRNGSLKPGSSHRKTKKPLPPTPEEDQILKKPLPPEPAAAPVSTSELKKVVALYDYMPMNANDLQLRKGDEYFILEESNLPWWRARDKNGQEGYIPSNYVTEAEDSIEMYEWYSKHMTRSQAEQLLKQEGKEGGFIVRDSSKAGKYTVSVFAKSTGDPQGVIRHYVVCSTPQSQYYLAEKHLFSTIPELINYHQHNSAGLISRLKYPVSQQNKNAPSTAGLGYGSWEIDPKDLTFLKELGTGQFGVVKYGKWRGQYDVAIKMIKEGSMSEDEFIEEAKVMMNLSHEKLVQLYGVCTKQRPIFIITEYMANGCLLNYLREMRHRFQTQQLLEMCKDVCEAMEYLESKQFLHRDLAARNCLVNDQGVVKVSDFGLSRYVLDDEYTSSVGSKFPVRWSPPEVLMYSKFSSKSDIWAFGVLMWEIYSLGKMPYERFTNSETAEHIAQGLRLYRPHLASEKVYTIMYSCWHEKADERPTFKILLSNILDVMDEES
Sequence of phosphorylated Btk at Tyr223 in Ramos cells (Q06187 whole entry): as above

As to `C=CC(=O)Nc1ccccc1C1CCNc2c(C(N)=O)c(-c3ccc(OCc4ccccc4)cc3)nn21` (single isomer, unassigned) [Compound 10a], the IC50 in test [1] (IC50 (nM) Btk) was 0.51 nM; in test [2] it was 2.2 nM.
For `C=CC(=O)N1CC[C@@H]2C(CNc3c(C(N)=O)c(-c4ccc(Oc5ccccc5)cc4)nn32)C1` (single isomer, unassigned) [Compound 30a], the figures for the IC50 in test [1] (read-out: IC50 (nM) Btk) and in test [2] were 0.66 nM and 5.6 nM, respectively.
Turning to `NC(=O)c1c(-c2ccc(Oc3ccccc3)cc2)nn2c1NCC[C@H]2C1CCN(C(=O)C#CCO)CC1` [Compound 191, (S)-7-(1-(4-Hydroxybut-2-ynoyl)piperidin-4-yl)-2-(4-phenoxyphenyl)-4,5,6,7-tetrahydropyrazolo[1,5-a]pyrimidine-3-carboxamide], the IC50 in test [1] (read-out: IC50 (nM) Btk) was determined as 0.67 nM.
Still for that read-out and setting: under `COCC#CC(=O)N1CCC([C@@H]2CCNc3c(C(N)=O)c(-c4ccc(Oc5ccccc5)cc4)nn32)CC1` [Compound 192, (S)-7-(1-(4-Methoxybut-2-ynoyl)piperidin-4-yl)-2-(4-phenoxyphenyl)-4,5,6,7-tetrahydropyrazolo[1,5-a]pyrimidine-3-carboxamide] stands 0.91 nM; under `CCCC#CC(=O)N1CCC([C@@H]2CCNc3c(C(N)=O)c(-c4ccc(Oc5ccccc5)cc4)nn32)CC1` [Compound 193, (S)-7-(1-(Hex-2-ynoyl)piperidin-4-yl)-2-(4-phenoxyphenyl)-4,5,6,7-tetrahydropyrazolo[1,5-a]pyrimidine-3-carboxamide], 3.9 nM.
The same measure, in the same setting: under `CC#CC(=O)N1CCC(C2CCNc3c(C(N)=O)c(-c4ccc(Oc5ccc(F)cc5)cc4)nn32)CC1` (stereo not shown) [Compound 194, 7-(1-(But-2-ynoyl)piperidin-4-yl)-2-(4-(4-fluorophenoxy)phenyl)-4,5,6,7-tetrahydropyrazolo[1,5-a]pyrimidine-3-carboxamide] stands 45 nM.
Same read-out and setting: then `CC#CC(=O)N1CCC(C2CCNc3c(C(N)=O)c(-c4ccc(Oc5cccc(Cl)c5)cc4)nn32)CC1` (stereo not shown) [Compound 195, 7-(1-(But-2-ynoyl)piperidin-4-yl)-2-(4-(3-chlorophenoxy)phenyl)-4,5,6,7-tetrahydropyrazolo[1,5-a]pyrimidine-3-carboxamide], with 8 nM; and `C=CC(=O)Nc1ccccc1C1CCNc2c(C(N)=O)c(-c3ccc(F)c(Cl)c3)nn21` (stereo not shown) [Compound 196, 7-(2-Acrylamidophenyl)-2-(3-chloro-4-fluorophenyl)-4,5,6,7-tetrahydropyrazolo[1,5-a]pyrimidine-3-carboxamide], with 1.1 nM.

In general, IC50 refers to the point on the concentration scale where inhibition reaches its midpoint.
